Among the data in patent US12616754B2, “Composition for delivery of a bioactive agent and method of manufacture and use thereof” (priority 2020, dated 2026) are IC50 values, retold here.

What is called IC50 is the midpoint of a concentration-inhibition curve. The low end stands for greater potency, the high end for weaker potency.

Holding throughout (assay): Cell viability WST-8 assay
What all share (format): cell-based

Experiment [1] concerns H1299 non-small cell lung carcinoma cells. The settings on record: H1299, 24 h. The method, then:
(§1) A549, BEAS-2B, H1299 and LL2 cells were cultured in 96-well plates at a density of 1×10^4 cells/well in DMEM supplemented with 2.0 mM L-glutamine, 50 μg/mL gentamicin, and 10% (v/v) fetal bovine serum at 37° C. in 5% CO2. Cells were then treated with various concentrations of free DOX, DNA NGs, and DNA-DOX NGs. After 24 h incubation, cell proliferation was evaluated using a WST-8 reagent (Dojindo Molecular Laboratories, Japan). After transferring the supernatant to 96-well plates, the supernatant was measured on a VersaMax Microplate Reader (Molecular Devices, Sunnyvale, CA, USA) at the wavelength of 405 nm. Cell viability was determined using the following equation: cell viability (%)=[(Abs405 nm in the treated sample cells−Abs405 nm in blank)/(Abs405 nm in untreated control cells−Abs405 nm in blank)]×100, wherein Abs405 nm refers to absorbance at 405 nm.

Experiment [2] concerns BEAS-2B bronchial epithelial cells. The note with it: 24 h. How it is done:
as §1

Experiment [3] relates to LL2 Lewis lung carcinoma cells. The note with it: LL2, 24 h. The method, then: as §1
The test system of experiment [4] is A549 lung adenocarcinoma cells. The settings on record: A549, 24 h. How it is done:
as §1

`COc1cccc2c1C(=O)c1c(O)c3c(c(O)c1C2=O)C[C@@](O)(C(=O)CO)C[C@@H]3O[C@H]1C[C@H](N)[C@H](O)[C@H](C)O1.Cl` [Free DOX, doxorubicin hydrochloride]: the IC50 in experiment [1] was 18.9 µg/mL; in experiment [2], 5.11 µg/mL; in experiment [3], 2.33 µg/mL; in experiment [4] it was 2.92 µg/mL.
